The source made the active and inactive calls. The rule behind the calls is not given here.
Tests used:
[1] = test system: MCF7; assay: Antiproliferative activity against human MCF7 cells assessed as inhibition of cell proliferation measured after 72 hrs by CCK-8 assay; assay type: functional, cell-based; conditions: MCF7, 72 h
[2] = test system: MCF-10A; assay: Cytotoxicity against human MCF-10A cells assessed as inhibition of cell proliferation measured after 72 hrs by CCK-8 assay; assay type: cell-based
[3] = test system: MDA-MB-231; assay: Antiproliferative activity against human MDA-MB-231 cells assessed as inhibition of cell proliferation measured after 72 hrs by CCK-8 assay; assay type: functional, cell-based; conditions: MDA-MB-231, 72 h
[4] = test system: MDA-MB-231; assay: Cell cycle arrest in human MDA-MB-231 cells assessed as accumulation of cells at G1 phase at 1.25 uM measured after 72 hrs by PI staining based flow cytometry method (reference value: 51.58%); assay type: functional
[5] = test system: MDA-MB-231; assay: Cell cycle arrest in human MDA-MB-231 cells assessed as accumulation of cells at G2/M phase at 5 uM measured after 72 hrs by PI staining based flow cytometry method (reference value: 12.24%); assay type: functional
[6] = test system: MDA-MB-231; assay: Cell cycle arrest in human MDA-MB-231 cells assessed as accumulation of cells at G2/M phase at 1.25 uM measured after 72 hrs by PI staining based flow cytometry method (reference value: 12.24%); assay type: functional
[7] = test system: MDA-MB-231; assay: Induction of apoptosis in human MDA-MB-231 cells assessed as early apoptotic cells at 2.5 uM measured after 72 hrs by Annexin V-FITC/PI staining based flow cytometry method (reference value: 4.42%); assay type: functional
[8] = test system: MDA-MB-231; assay: Induction of ROS generation in human MDA-MB-231 cells at 5 uM measured after 72 hrs by DCFH-DA staining based flow cytometry (reference value: 4.37%); assay type: functional
[9] = test system: MDA-MB-231; assay: Induction of apoptosis in human MDA-MB-231 cells assessed as early apoptotic cells at 1.25 uM measured after 72 hrs by Annexin V-FITC/PI staining based flow cytometry method (reference value: 4.42%); assay type: functional
[10] = test system: MDA-MB-231; assay: Induction of apoptosis in human MDA-MB-231 cells assessed as late apoptotic cells at 1.25 uM measured after 72 hrs by Annexin V-FITC/PI staining based flow cytometry method (reference value: 1.34%); assay type: functional
[11] = test system: MDA-MB-231; assay: Inhibition of cell adhesion in human MDA-MB-231 cells measured after 72 hrs by fluorescence microscopy; assay type: functional, cell-based; conditions: dose 1.25-5 µM
[12] = test system: MDA-MB-231; assay: Induction of apoptosis in human MDA-MB-231 cells assessed as necrotic cells at 5 uM measured after 72 hrs by Annexin V-FITC/PI staining based flow cytometry method (reference value: 0.97%); assay type: functional
[13] = test system: MDA-MB-231; assay: Induction of ROS generation in human MDA-MB-231 cells at 2.5 uM measured after 72 hrs by DCFH-DA staining based flow cytometry (reference value: 4.37%); assay type: functional
[14] = test system: MDA-MB-231; assay: Cell cycle arrest in human MDA-MB-231 cells assessed as accumulation of cells at S phase at 5 uM measured after 72 hrs by PI staining based flow cytometry method (reference value: 36.19%); assay type: functional
[15] = test system: MDA-MB-231; assay: Cell cycle arrest in human MDA-MB-231 cells assessed as accumulation of cells at G1 phase at 2.5 uM measured after 72 hrs by PI staining based flow cytometry method (reference value: 51.58%); assay type: functional
[16] = test system: MDA-MB-231; assay: Cell cycle arrest in human MDA-MB-231 cells assessed as accumulation of cells at S phase at 2.5 uM measured after 72 hrs by PI staining based flow cytometry method (reference value: 36.19%); assay type: functional
[17] = test system: MDA-MB-231; assay: Induction of DNA damage in human MDA-MB-231 cells assessed as increase in generation of endogenous double strand DNA break adducts measured after 72 hrs by comet assay; assay type: functional, cell-based; conditions: dose 1.25-5 µM
[18] = test system: MDA-MB-231; assay: Induction of apoptosis in human MDA-MB-231 cells assessed as late apoptotic cells at 5 uM measured after 72 hrs by Annexin V-FITC/PI staining based flow cytometry method (reference value: 1.34%); assay type: functional
[19] = test system: MDA-MB-231; assay: Induction of apoptosis in human MDA-MB-231 cells assessed as viable cells at 1.25 uM measured after 72 hrs by Annexin V-FITC/PI staining based flow cytometry method (reference value: 93.27%); assay type: functional; conditions: read-out: Activity
[20] = test system: MDA-MB-231; assay: Inhibition of cell invasion in human MDA-MB-231 cells at 1.25 to 5 uM measured after 24 hrs by transwell assay; assay type: functional, cell-based; conditions: dose 1.25-5 µM
[21] = test system: MDA-MB-231; assay: Cell cycle arrest in human MDA-MB-231 cells assessed as accumulation of cells at S phase at 1.25 uM measured after 72 hrs by PI staining based flow cytometry method (reference value: 36.19%); assay type: functional
[22] = test system: MDA-MB-231; assay: Induction of apoptosis in human MDA-MB-231 cells assessed as necrotic cells at 1.25 uM measured after 72 hrs by Annexin V-FITC/PI staining based flow cytometry method (reference value: 0.97%); assay type: functional
[23] = test system: MDA-MB-231; assay: Induction of apoptosis in human MDA-MB-231 cells assessed as viable cells at 2.5 uM measured after 72 hrs by Annexin V-FITC/PI staining based flow cytometry method (reference value: 93.27%); assay type: functional; conditions: read-out: Activity
[24] = test system: MDA-MB-231; assay: Inhibition of cell migration in human MDA-MB-231 cells measured after 24 hrs by scratch wound healing assay; assay type: functional, cell-based; conditions: dose 1.25-5 µM
[25] = test system: MDA-MB-231; assay: Induction of apoptosis in human MDA-MB-231 cells assessed as necrotic cells at 2.5 uM measured after 72 hrs by Annexin V-FITC/PI staining based flow cytometry method (reference value: 0.97%); assay type: functional
[26] = test system: MDA-MB-231; assay: Induction of apoptosis in human MDA-MB-231 cells assessed as late apoptotic cells at 2.5 uM measured after 72 hrs by Annexin V-FITC/PI staining based flow cytometry method (reference value: 1.34%); assay type: functional
[27] = test system: MDA-MB-231; assay: Induction of ROS generation in human MDA-MB-231 cells at 1.25 uM measured after 72 hrs by DCFH-DA staining based flow cytomtery (reference value: 4.37%); assay type: functional
[28] = test system: MDA-MB-231; assay: Induction of DNA damage in human MDA-MB-231 cells assessed as increase in tail DNA measured after 72 hrs by comet assay; assay type: functional, cell-based; conditions: dose 1.25-5 µM
[29] = test system: MDA-MB-231; assay: Induction of apoptosis in human MDA-MB-231 cells assessed as viable cells at 5 uM measured after 72 hrs by Annexin V-FITC/PI staining based flow cytometry method (reference value: 93.27%); assay type: functional; conditions: read-out: Activity
[30] = test system: MDA-MB-231; assay: Induction of apoptosis in human MDA-MB-231 cells assessed as early apoptotic cells at 5 uM measured after 72 hrs by Annexin V-FITC/PI staining based flow cytometry method (reference value: 4.42%); assay type: functional
[31] = test system: MDA-MB-231; assay: Cell cycle arrest in human MDA-MB-231 cells assessed as accumulation of cells at G2/M phase at 2.5 uM measured after 72 hrs by PI staining based flow cytometry method (reference value: 12.24%); assay type: functional
[32] = test system: MDA-MB-231; assay: Cell cycle arrest in human MDA-MB-231 cells assessed as accumulation of cells at G1 phase at 5 uM measured after 72 hrs by PI staining based flow cytometry method (reference value: 51.58%); assay type: functional

O=C(OCc1cc2c(cn1)[nH]c1ccccc12)c1ccc(N(CCCl)CCCl)cc1
IC50 [1]: 2.31 µM | IC50 [2]: > 40 µM | IC50 [3]: 9.65 µM

COc1cccc2c1C(=O)c1c(O)c3c(c(O)c1C2=O)C[C@@](O)(C(=O)CO)C[C@@H]3O[C@H]1C[C@H](N)[C@H](O)[C@H](C)O1 [DOXORUBICIN]
IC50 [3]: 2.76 µM

COC(=O)[C@H](Cc1ccc(N(CCCl)CCCl)cc1)NC(=O)CCC(=O)OCc1cc2c([nH]c3ccccc32)c(C)n1
IC50 [1]: > 20 µM | IC50 [2]: > 40 µM | IC50 [3]: > 20 µM

Cc1nc(CO)cc2c1[nH]c1ccccc12
IC50 [1]: 11.3 µM | IC50 [2]: > 40 µM | IC50 [3]: > 20 µM

COc1ccc(-c2nc(CO)cc3c2[nH]c2ccccc23)cc1
IC50 [1]: 15.8 µM | IC50 [2]: > 40 µM | IC50 [3]: > 20 µM

COC(=O)[C@H](Cc1ccc(N(CCCl)CCCl)cc1)NC(=O)CCCC(=O)OCc1cc2c(cn1)[nH]c1ccccc12
IC50 [1]: > 20 µM | IC50 [2]: > 40 µM | IC50 [3]: > 20 µM

OCc1cc2c(cn1)[nH]c1ccccc12
IC50 [1]: > 20 µM | IC50 [2]: > 40 µM | IC50 [3]: > 20 µM

COc1ccc(-c2nc(COC(=O)[C@H](Cc3ccc(N(CCCl)CCCl)cc3)NC(=O)OC(C)(C)C)cc3c2[nH]c2ccccc23)cc1
IC50 [1]: 5.31 µM | IC50 [2]: > 40 µM | IC50 [3]: 19.6 µM

COC(=O)[C@H](Cc1ccc(N(CCCl)CCCl)cc1)NC(=O)CCCC(=O)OCc1cc2c([nH]c3ccccc32)c(C)n1
IC50 [1]: > 20 µM | IC50 [2]: > 40 µM | IC50 [3]: > 20 µM

Cc1nc(COC(=O)[C@H](Cc2ccc(N(CCCl)CCCl)cc2)NC(=O)OC(C)(C)C)cc2c1[nH]c1ccccc12
IC50 [1]: 4.9 µM | IC50 [2]: > 40 µM | IC50 [3]: 17.5 µM

COc1ccc(-c2nc(COC(=O)[C@H](Cc3ccc(N(CCCl)CCCl)cc3)NC=O)cc3c2[nH]c2ccccc23)cc1
IC50 [1]: 4.23 µM | IC50 [2]: 31.9 µM | IC50 [3]: 5.72 µM

COC(=O)[C@H](Cc1ccc(N(CCCl)CCCl)cc1)NC(=O)CCCC(=O)OCc1cc2c([nH]c3ccccc32)c(-c2ccc(OC)cc2)n1
IC50 [1]: > 20 µM | IC50 [2]: > 40 µM | IC50 [3]: > 20 µM

N[C@@H](Cc1ccc(N(CCCl)CCCl)cc1)C(=O)O [MELPHALAN]
IC50 [1]: 8.48 µM | IC50 [2]: > 40 µM | IC50 [3]: > 20 µM

Cc1nc(COC(=O)c2ccc(N(CCCl)CCCl)cc2)cc2c1[nH]c1ccccc12
IC50 [1]: 3.78 µM | IC50 [2]: 26.4 µM | IC50 [3]: 7.48 µM

COC(=O)[C@H](Cc1ccc(N(CCCl)CCCl)cc1)NC(=O)CCC(=O)OCc1cc2c(cn1)[nH]c1ccccc12
IC50 [1]: > 20 µM | IC50 [2]: > 40 µM | IC50 [3]: > 20 µM

COC(=O)[C@H](Cc1ccc(N(CCCl)CCCl)cc1)NC(=O)CCC(=O)OCc1cc2c([nH]c3ccccc32)c(-c2ccc(OC)cc2)n1
IC50 [1]: 16.9 µM | IC50 [2]: > 40 µM | IC50 [3]: > 20 µM

COc1ccc(-c2nc(COC(=O)c3ccc(N(CCCl)CCCl)cc3)cc3c2[nH]c2ccccc23)cc1
IC50 [1]: 2.35 µM | IC50 [2]: 35.1 µM | IC50 [3]: 14.5 µM

O=CN[C@@H](Cc1ccc(N(CCCl)CCCl)cc1)C(=O)OCc1cc2c(cn1)[nH]c1ccccc12
IC50 [1]: 2.7 µM | IC50 [2]: 25.7 µM | IC50 [3]: 6.53 µM

Cc1nc(COC(=O)[C@H](Cc2ccc(N(CCCl)CCCl)cc2)NC=O)cc2c1[nH]c1ccccc12
Activity [4]: 47.85% | Activity [5]: 20.2% | Activity [6]: 13.62% | Activity [7]: 12.24% | IC50 [1]: 1.79 µM | Activity [8]: 47.15% | Activity [9]: 8.77% | Activity [10]: 9.71% | inhibition [11]: Dose-Dependent Effect | Activity [12]: 5.32% | Activity [13]: 20.33% | Activity [14]: 37.74% | Activity [15]: 44.83% | IC50 [2]: 22.5 µM | Activity [16]: 38.72% | Activity [17]: Dose-Dependent Effect | Activity [18]: 22.85% | viability at 1.25 µM [19]: 78% | inhibition [20]: Active | Activity [21]: 38.53% | Activity [22]: 3.49% | viability at 2.5 µM [23]: 74.2% | inhibition [24]: Dose-Dependent Effect | Activity [25]: 3.39% | Activity [26]: 10.22% | Activity [27]: 17.2% | Activity [28]: Dose-Dependent Effect | viability at 5 µM [29]: 48.5% | IC50 [3]: 4.96 µM | Activity [30]: 23.28% | Activity [31]: 16.45% | Activity [32]: 42.06%

CC(C)(C)OC(=O)N[C@@H](Cc1ccc(N(CCCl)CCCl)cc1)C(=O)OCc1cc2c(cn1)[nH]c1ccccc12
IC50 [1]: 3.43 µM | IC50 [2]: > 40 µM | IC50 [3]: 16.9 µM

Reference: ChEMBL document CHEMBL4834486 (Bioorg Med Chem, 2021)
